# Where a name gives a salt, the structure may show the parent alone.
# Columns and labels:
# SHP2 = SHP2 (Homo sapiens (Human), UniProt Q06124); assay: Shp2 Biochemical Assay (DiFMUP conversion); conditions: for IC50: 10 pM SHP2, activating peptide pIRS1, DiFMUP substrate, average where more than one data point
# Protocol: SHP2 activity was monitored by measuring the conversion of the surrogate substrate 6,8-difluoromethylumbelliferyl phosphate (DiFMUP) to the fluorescent product, 6,8-difluoromethylumbelliferone (DiFMU).
# SHP2 was pre-incubated with test compounds and the activating peptide pIRS1 (H2N-LN(pY)IDLDLV-(PEG)8-LST(pY)ASINFQK-amide) for 30 min, prior to addition of the 6,8-difluoromethylumbelliferyl phosphate (DiFMUP), (Thermo Fisher D6567). Final assay concentrations were 10 pM SHP2, 0.25 μM pIRS1 peptide, 50 μM DiFMUP, 25 mM Bis-Tris propane, pH 7.0, 150 mM NaCl, 0.05% (v/v) Tween-20, 0.5 mM TCEP and 5% (v/v) DMSO. Rates of reaction were then measured over 30 min by monitoring fluorescence on a BMG Pherastar reader at excitation 360 nm/emission 450 nm. IC50 values were calculated from the normalized dose-response plots using four parameter logistic curve fit.
# pERK = assay: Cellular pERK Inhibition Assay (phospho-p44/42 MAPK sandwich ELISA); assay type: cell-based; conditions: Homo sapiens; HCC827 cells, 0.5 hours compound treatment; average where more than one data point
# Protocol: Cellular pERK Inhibition Assay
# HCC827 cells (ATCC, Manassas, USA) were seeded into 96-well plates at a density of 1×10^5 cells/well in RPMI medium supplemented with 10% FBS and incubated 24 h. Compounds were diluted first in DMSO and then into serum-free medium, before being added to cells in triplicate to give a final concentration of 0.1% DMSO. Plates were incubated at 37° C. for 0.5 hours in a humidified atmosphere of 5% CO2 in air.
# Following compound treatment, medium was removed and cells were lysed by adding 50 μL of lysis buffer (Cell Signalling Technology, Beverly, USA) to each well. Plates were then incubated at room temperature for 25 minutes with shaking. pERK levels were measured in lysates using the PathScan® phospho-p44/42 MAPK (Thr202/Tyr204) sandwich ELISA (Cell Signalling Technology, Beverly, USA) as per kit instructions. Briefly, 50 μL of cell lysate was added to 50 μL of ELISA sample diluent in a 96-well ELISA plate and incubated overnight at 4° C. Following washing, 100 μL of detection antibody was added per well and the plates incubated for 1 hour at 37° C. Plates were washed again and incubated at 37° C. for 30 minutes with 100 μl of HRP-linked secondary antibody per well. After final washing, 100 μL per well of TMB substrate was added and plates incubated at 37° C. to develop colour. Colour development was stopped by the addition of 100 μL per well of stop solution. Plates were read at 450 nm on a SpectraMax Gemini reader (Molecular Devices, Uckfield, UK).
# The average signal from blank wells (no cells added) was subtracted from the signals from each sample well. Levels of pERK were then expressed as “percent of control”, using DMSO treated samples as control. Dose response curves were generated using GraphPad Prism Version 6 (GraphPad Software, La Jolla, USA) and fitted using the four parameter logistic curve fit.
# Sequence of SHP2 (Q06124 whole entry): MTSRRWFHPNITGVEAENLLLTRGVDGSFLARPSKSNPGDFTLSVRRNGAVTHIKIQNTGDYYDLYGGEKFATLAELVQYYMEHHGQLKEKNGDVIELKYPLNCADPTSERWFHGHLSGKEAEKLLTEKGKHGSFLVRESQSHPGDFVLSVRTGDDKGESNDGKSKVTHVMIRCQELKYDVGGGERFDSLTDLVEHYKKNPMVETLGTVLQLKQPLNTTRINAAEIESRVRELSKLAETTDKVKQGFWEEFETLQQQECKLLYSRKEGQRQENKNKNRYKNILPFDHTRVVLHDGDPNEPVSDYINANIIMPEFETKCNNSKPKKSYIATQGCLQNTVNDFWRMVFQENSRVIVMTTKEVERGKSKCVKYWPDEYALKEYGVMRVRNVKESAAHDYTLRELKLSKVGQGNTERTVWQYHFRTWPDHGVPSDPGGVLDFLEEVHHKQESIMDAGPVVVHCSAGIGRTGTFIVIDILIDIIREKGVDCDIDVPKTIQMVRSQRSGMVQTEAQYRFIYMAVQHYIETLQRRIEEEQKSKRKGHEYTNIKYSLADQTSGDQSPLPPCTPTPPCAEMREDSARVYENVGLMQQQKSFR
SMILES,IC50 (SHP2),IC50 (pERK),"inhibition at 0.03 µM (SHP2; at 0.030 μM, read-out: SHP2 % inhibition at given concentration)","inhibition at 0.01 µM (SHP2; at 0.010 μM, read-out: SHP2 % inhibition at given concentration)","inhibition at 0.003 µM (SHP2; at 0.0030 μM, read-out: SHP2 % inhibition at given concentration)"
"Cc1nc2c(-c3ccc4nn(C)cc4c3Cl)n[nH]c2nc1N1CCC2(CC1)C[C@@H](C(F)(F)F)C[C@H]2N [Example 1, (1R,3R)-8-[3-(4-chloro-2-methyl-2H-indazol-5-yl)-5-methyl-1H-pyrazolo[3,4-b]pyrazin-6-yl]-3-(trifluoromethyl)-8-azaspiro[4.5]decan-1-amine hydrochloride]",20 nM,74 nM,,,
"Cc1nc2c(-c3ccc4nn(C)cc4c3Cl)n[nH]c2nc1N1CCC2(CC1)CC(F)(F)C[C@H]2N [Example 2, (1R)-8-[3-(4-chloro-2-methyl-2H-indazol-5-yl)-5-methyl-1H-pyrazolo[3,4-b]pyrazin-6-yl]-3,3-difluoro-8-azaspiro[4.5]decan-1-amine hydrochloride]",17 nM,81 nM,,,
"Cc1nc2c(-c3ccc4nn(C)cc4c3Cl)n[nH]c2nc1N1CCC2(CC1)COC[C@H]2N [Example 3, (4S)-8-[3-(4-chloro-2-methyl-2H-indazol-5-yl)-5-methyl-1H-pyrazolo[3,4-b]pyrazin-6-yl]-2-oxa-8-azaspiro[4.5]decan-4-amine]",5.6 nM,40 nM,,,
"Cc1nc2c(-c3ccc4nn(C)c(Cl)c4c3Cl)n[nH]c2nc1N1CCC2(CC1)COC[C@H]2N [Example 4, (4S)-8-[3-(3,4-dichloro-2-methyl-2H-indazol-5-yl)-5-methyl-1H-pyrazolo[3,4-b]pyrazin-6-yl]-2-oxa-8-azaspiro[4.5]decan-4-amine]",5.3 nM,,,,
"CCn1cc2c(Cl)c(-c3n[nH]c4nc(N5CCC6(CC5)COC[C@H]6N)c(C)nc34)ccc2n1 [Example 5, (4S)-8-[3-(4-chloro-2-ethyl-2H-indazol-5-yl)-5-methyl-1H-pyrazolo[3,4-b]pyrazin-6-yl]-2-oxa-8-azaspiro[4.5]decan-4-amine]",7.6 nM,46 nM,,,
"Cc1nc2c(-c3ccc4nn(C)cc4c3Cl)n[nH]c2nc1N1CCC2(CC1)CO[C@@H](C)[C@H]2N [Example 6, (3S,4S)-8-[3-(4-Chloro-2-methyl-2H-indazol-5-yl)-5-methyl-1H-pyrazolo[3,4-b]pyrazin-6-yl]-3-methyl-2-oxa-8-azaspiro[4.5]decan-4-amine]",18 nM,12 nM,,,
"Cn1cc2c(Cl)c(-c3n[nH]c4nc(N5CCC6(CC5)CC(F)(F)C[C@H]6N)c(CO)nc34)ccc2n1 [Example 7, {6-[(1R)-1-amino-3,3-difluoro-8-azaspiro[4.5]decan-8-yl]-3-(4-chloro-2-methyl-2H-indazol-5-yl)-1H-pyrazolo[3,4-b]pyrazin-5-yl}methanol]",11 nM,6.3 nM,,,
"C[C@@H]1OCC2(CCN(c3nc4[nH]nc(-c5ccc6nn(C)c(Cl)c6c5Cl)c4nc3CO)CC2)[C@@H]1N [Example 8, {6-[(3S,4S)-4-amino-3-methyl-2-oxa-8-azaspiro[4.5]decan-8-yl]-3-(3,4-dichloro-2-methyl-2H-indazol-5-yl)-1H-pyrazolo[3,4-b]pyrazin-5-yl}methanol]",7.1 nM,3.6 nM,,,
"COc1cnc2ccc(-c3n[nH]c4nc(N5CCC6(CC5)CO[C@@H](C)[C@H]6N)c(C)nc34)c(Cl)c2n1 [Example 9, (3S,4S)-8-[3-(5-chloro-3-methoxyquinoxalin-6-yl)-5-methyl-1H-pyrazolo[3,4-b]pyrazin-6-yl]-3-methyl-2-oxa-8-azaspiro[4.5]decan-4-amine hydrochloride]",18 nM,45 nM,,,
"Cc1nc2c(-c3ccc4ncc(N(C)C)nc4c3Cl)n[nH]c2nc1N1CCC2(CC1)CO[C@@H](C)[C@H]2N [Example 10, (3S,4S)-8-{3-[5-chloro-3-(dimethylamino)quinoxalin-6-yl]-5-methyl-1H-pyrazolo[3,4-b]pyrazin-6-yl}-3-methyl-2-oxa-8-azaspiro[4.5]decan-4-amine]",19 nM,17 nM,,,
"Cc1nc2c(-c3ccc4ncc(N(C)C)nc4c3Cl)n[nH]c2nc1N1CCC2(CC1)COC[C@H]2N [Example 11, (4S)-8-{3-[5-chloro-3-(dimethylamino)quinoxalin-6-yl]-5-methyl-1H-pyrazolo[3,4-b]pyrazin-6-yl}-2-oxa-8-azaspiro[4.5]decan-4-amine]",,32 nM,66%,,
"Cc1nc2c(-c3ccc4ncc(N(C)C)nc4c3Cl)n[nH]c2nc1N1CCC2(CCC[C@H]2N)CC1 [Example 12, 7-(6-[(1R)-1-amino-8-azaspiro[4.5]decan-8-yl]-5-methyl-1H-pyrazolo[3,4-b]pyrazin-3-yl}-8-chloro-N,N-dimethyl-quinoxalin-2-amine]",15 nM,33 nM,,,
"COc1cnc2ccc(-c3n[nH]c4nc(N5CCC6(CC5)COC[C@H]6N)c(C)nc34)c(Cl)c2n1 [Example 13, (4S)-8-[3-(5-chloro-3-methoxyquinoxalin-6-yl)-5-methyl-1H-pyrazolo[3,4-b]pyrazin-6-yl]-2-oxa-8-azaspiro[4.5]decan-4-amine]",,95 nM,,35%,
"COc1cnc2ccc(-c3n[nH]c4nc(N5CCC6(CCC[C@H]6N)CC5)c(C)nc34)c(Cl)c2n1 [Example 14, (1R)-8-[3-(5-chloro-3-methoxyquinoxalin-6-yl)-5-methyl-1H-pyrazolo[3,4-b]pyrazin-6-yl]-8-azaspiro[4.5]decan-1-amine]",13 nM,150 nM,,,
"Cc1nc2c(-c3ccc4nn(C)c(Cl)c4c3Cl)n[nH]c2nc1N1CCC2(CCC[C@H]2N)CC1 [Example 15, (1R)-8-[3-(3,4-dichloro-2-methyl-2H-indazol-5-yl)-5-methyl-1H-pyrazolo[3,4-b]pyrazin-6-yl]-8-azaspiro[4.5]decan-1-amine]",7.6 nM,59 nM,,,
"Cn1nc2ccc(-c3n[nH]c4nc(N5CCC6(CC5)CC(F)(F)C[C@H]6N)c(CO)nc34)c(Cl)c2c1Cl [Example 16, {6-[(1R)-1-amino-3,3-difluoro-8-azaspiro[4.5]decan-8-yl]-3-(3,4-dichloro-2-methyl-2H-indazol-5-yl)-1H-pyrazolo[3,4-b]pyrazin-5-yl}methanol]",7 nM,6.2 nM,,,
"C[C@@H]1OCC2(CCN(c3nc4[nH]nc(-c5ccc6ncc(N(C)C)nc6c5Cl)c4nc3CO)CC2)[C@@H]1N [Example 17, {6-[(3S,4S)-4-amino-3-methyl-2-oxa-8-azaspiro[4.5]decan-8-yl]-3-[5-chloro-3-(dimethylamino)quinoxalin-6-yl]-1H-pyrazolo[3,4-b]pyrazin-5-yl}methanol]",14 nM,5.3 nM,,,
"C[C@@H]1OCC2(CCN(c3nc4[nH]nc(-c5cccc(Cl)c5Cl)c4nc3CO)CC2)[C@@H]1N [Example 18, {6-[(3S,4S)-4-amino-3-methyl-2-oxa-8-azaspiro[4.5]decan-8-yl]-3-(2,3-dichlorophenyl)-1H-pyrazolo[3,4-b]pyrazin-5-yl}methanol]",,4.9 nM,,,37%
"Cc1nc2c(-c3cccc(Cl)c3F)n[nH]c2nc1N1CCC2(CC1)CO[C@@H](C)[C@H]2N [Example 19, (3S,4S)-8-[3-(3-chloro-2-fluorophenyl)-5-methyl-1H-pyrazolo[3,4-b]pyrazin-6-yl]-3-methyl-2-oxa-8-azaspiro[4.5]decan-4-amine]",9.8 nM,100 nM,,,
"Cn1nc2ccc(-c3n[nH]c4nc(N5CCC6(CC5)C[C@H](F)C[C@H]6N)c(CO)nc34)c(Cl)c2c1Cl [Example 20, {6-[(1R,3S)-1-amino-3-fluoro-8-azaspiro[4.5]decan-8-yl]-3-(3,4-dichloro-2-methyl-2H-indazol-5-yl)-1H-pyrazolo[3,4-b]pyrazin-5-yl}methanol]",7.1 nM,4.1 nM,,,
"Cc1c2c(Cl)c(-c3n[nH]c4nc(N5CCC6(CC5)CO[C@@H](C)[C@H]6N)c(CO)nc34)ccc2nn1C [Example 21, {6-[(3S,4S)-4-amino-3-methyl-2-oxa-8-azaspiro[4.5]decan-8-yl]-3-(4-chloro-2,3-dimethyl-2H-indazol-5-yl)-1H-pyrazolo[3,4-b]pyrazin-5-yl}methanol]",15 nM,5.7 nM,,,

# From patent US12458640B2, “Pyrazolo[3,4-b]pyrazine SHP2 phosphatase inhibitors” (OTSUKA PHARMACEUTICAL CO., LTD., priority 2019, dated 2025)
